Measurements from patent US10253323B2, “Chloroplast transit peptides” (priority 2015, dated 2019).
“Also recorded” adds a separate entry of the source.

B1: TraP10: chimeric chloroplast transit peptide, SEQ ID NO:1; N-terminus Brassica napus, C-terminus Glycine max EPSPS; tested fused to YFP (pDAB101979) (protein)
chain: MAQSSRICHGVQNPCVIISNLSKSNQNKSPFSVSLRPRLWGASKSRIPMHKNGSFMGNFNVGKGNSGVFKVS
modifications: TraP10
B2: TraP17: chimeric chloroplast transit peptide, SEQ ID NO:3; N-terminus Calystegia, C-terminus Chlamydamonas reinhardtii; tested fused to GFP (pDAB107634) (protein)
chain: MAQVNNMMQGLRLSPSNLSKPQTPLPSHSLLLGSNSLKNSVSASSVAPAPACSAPAGAGRRAVVVR
modifications: TraP17

Key:
[1] = tested on: chloroplasts of the tobacco leaf tissues; assay: Tobacco transient assay, confocal microscopy of TraP-YFP/GFP; assay type: cell-based, Nicotiana tabacum; details: TraP-YFP or TraP-GFP fusion, Agrobacterium-infiltrated tobacco leaf tissue
Source text: The above described chimeric chloroplast transit peptide sequences were initially tested via a transient in planta assay. Polynucleotide sequences which encode the TraP10 (SEQ ID NO:9), TraP11 (SEQ ID NO:10), TraP17 (SEQ ID NO:11), TraP18 (SEQ ID NO:12), TraP19 (SEQ ID NO:13), TraP26 (SEQ ID NO:14), TraP27 (SEQ ID NO:15), and TraP28 (SEQ ID NO:16), chimeric chloroplast transit peptide sequences were synthesized. A linker sequence (SEQ ID NO:17) was incorporated between the TraP sequence and the yfp coding sequence of TraP10 and TraP11. The resulting constructs contained two plant transcription units (PTU). The first PTU was comprised of the Arabidopsis thaliana Ubiquitin 10 promoter (AtUbi10 promoter; Callis, et al., (1990) J. Biol. Chem., 265: 12486-12493), TraP-yellow fluorescent protein fusion gene (TraP-YFP; US Patent App. 2007/0298412) or the TraP-green fluorescent protein fusion gene (TraP-GFP; Sheen et al., (1995) Plant J., 8(5): 777-84), and Agrobacterium tumefaciens ORF 23 3′ untranslated region (AtuORF23 3′UTR; U.S. Pat. No. 5,428,147). The second PTU was comprised of the Cassava Vein Mosaic Virus promoter (CsVMV promoter; Verdaguer et al., (1996) Plant Molecular Biology, 31: 1129-1139), phosphinothricin acetyl transferase (PAT; Wohlleben et al., (1988) Gene, 70: 25-37) or DSM-II (International Patent App. 2008070845), and Agrobacterium tumefaciens ORF 1 3′ untranslated region (AtuORF1 3′UTR; Huang et al., (1990) J. Bacteriol., 172: 1814-1822). Construct pDAB101979 contains the TraP10 chimeric chloroplast transit peptide (FIG. 3). Construct pDAB101980 contains the TraP11 chimeric chloroplast transit peptide (FIG. 4). Construct pDAB107634 contains the TraP17 chimeric chloroplast transit peptide (FIG. 5). Construct pDAB107635 contains the TraP18 chimeric chloroplast transit peptide (FIG. 6). Construct pDAB107636 contains the TraP19 chimeric chloroplast transit peptide (FIG. 7). Construct pDAB109847 contains the TraP26 chimeric chloroplast transit peptide (FIG. 8). Construct pDAB109848 contains the TraP27 chimeric chloroplast transit peptide (FIG. 9). Construct pDAB109849 contains the TraP28 chimeric chloroplast transit peptide (FIG. 10). […] The constructs were confirmed via restriction enzyme digestion and sequencing. Finally, the constructs were transformed into Agrobacterium tumefaciens and stored as glycerol stocks.
From an Agrobacterium glycerol stock, a loop full of frozen culture was inoculated into 2 ml of Yeast-extract Peptone Dextrose (100 μg/ml spectinomycin) in a 14 ml sterile tube. The inoculated media was incubated at 28° C. overnight with shaking at 200 rpm. The following day about 100 μl of the culture was used to inoculate 25 ml of YPD (100 μg/ml spectinomycin) in a 125 ml sterile tri-baffled flask, and incubated overnight at 28° C. overnight with shaking at 200 rpm. The following day the cultures were diluted to an OD600 of 0.5 in sterile ddH2O (pH 8.0). The diluted Agrobacterium strain was mixed with a second Agrobacterium strain containing the P19 helper protein at a ratio of 1:1. The culture were used for tobacco leaf infiltration via the Voinnet method. Voinnet O, Rivas S, Mestre P, and Baulcombe D, (2003) An enhanced transient expression system in plants based on suppression of gene silencing by the p19 protein of tomato bushy stunt virus. The Plant Journal, 33: 949-956. Infiltrated tobacco plants were placed in a Conviron™ set at 16 hr of light at 24° C. for at least three days until being assayed.
Agrobacterium-infiltrated tobacco leaves were severed from the plant, and placed into a petri-dish with water to prevent dehydration. The infiltrated tobacco leaves were observed under blue light excitation with long-pass filter glasses held in place using a Dark Reader Hand Lamp™ (Clare Chemical Research Co.; Dolores, Colo.) to identify undamaged areas of the leaf that were successfully expressing the YFP or GFP reporter proteins. […]

[2] = tested on: infiltrated tobacco cells; assay: Western blot of infiltrated tobacco plants; assay type: cell-based, Nicotiana tabacum; details: infiltrated tobacco leaf tissue
Method: Samples of the infiltrated tobacco plants were assayed via Western blotting. Leaf punches were collected and subjected to bead-milling. About 100-200 mg of leaf material was mixed with 2 BBs (Daisy; Rogers, Ark.) and […] of PBST for 3 minutes in a Kleco™ bead mill. The samples were then spun down in a centrifuge at 14,000× g at 4° C. The supernatant was removed and either analyzed directly via Western blot or immunoprecipitated. The immunoprecipitations were performed using the Pierce Direct IP Kit™ (Thermo Scientific; Rockford, Ill.) following the manufacturer's protocol. Approximately, 50 μg of anti-YFP or anti-GFP was bound to the resin. The samples were incubated with the resin overnight at 4° C. Next, the samples were washed and eluted the following morning and prepped for analysis by combining equal volumes of 2×8M Urea sample buffer and then boiling the samples for 5 minutes. The boiled samples were run on a 4-12% SDS-Bis Tris gel in MOPS buffer for 40 minutes. The gel was then blotted using the Invitrogen iBlot™ (Life Technologies; Carlsbad, Calif.) following the manufacturer's protocol. The blotted membrane was blocked for 10 minutes using 5% non-fat dry milk in PBS-Tween® solution. The membrane was probed with the primary antibody (monoclonal anti-GFP or anti-YFP in rabbit) used at a 1:1000 dilution in the 5% non-fat dry milk in PBS-Tween® solution for 1 hour. Next, the membrane was rinsed three times for five minutes with PBS-Tween® to remove all unbound primary antibody. The membrane was probed with a secondary monoclonal anti-rabbit in goat antibody (Life Technologies) used at a 1:1000 dilution, for 60 minutes. The membrane was washed as previously described and developed by adding Themo BCIP/NBT™ substrate. The colormetric substrate was allowed to develop for 5-10 minutes and then the blots were rinsed with water before being dried.

[3] = tested on: dgt-28 transformed T1 Arabidopsis; assay: Glyphosate tolerance of dgt-28 transformed T1 Arabidopsis; assay type: in vivo, Arabidopsis thaliana; details: dgt-28 linked with the chloroplast transit peptide, T1 Arabidopsis
Method: The Arabidopsis T1 transformants (from transformation with pDAB114286 or pDAB114287) were first selected from the background of untransformed seed using a glufosinate selection scheme. Three flats or 50,000 seed were analyzed for each T1 construct. The selected T1 plants were molecularly characterized (as described above) and events with a range of copy number were sprayed with various rates of commercial glyphosate.
Transgenic T1 Arabidopsis plants containing the dgt-28 transgene were sprayed with differing rates of glyphosate. Elevated rates were applied in this study to determine the relative levels of resistance (420, 840, 1,680 or 3,360 g ae/ha). The typical 1× field usage rate of glyphosate is 1120 g ae/ha. The response of these plants is presented in terms of % visual injury 2 weeks after treatment (WAT). The T1 Arabidopsis plants that were used in this study were of variable copy number for the dgt-28 transgene. The low copy dgt-28 T1 Arabidopsis plants were self-pollinated and used to produce T2 plants.
An arithmetic mean and standard deviation is presented for each construct used for Arabidopsis transformation. The range in individual response is also indicated in the last column for each rate and transformation. Wildtype, non-transformed Arabidopsis thaliana c.v. Columbia served as a glyphosate sensitive control.

[4] = tested on: chloroplasts of the maize protoplasts; assay: Maize protoplast transient assay, microscopy of TraP-GFP; assay type: cell-based, Zea mays c.v. B104; details: TraP-GFP fusion, transfected maize protoplasts, microscopy after 12 hours
Method: Seed of Zea mays c.v. B104 were surface sterilized by shaking vigorously in 50% Clorox™ (3% sodium hypochlorite), containing 2-3 drops of Tween® 20, for about 20 minutes. The seeds were rinsed thoroughly with sterile distilled water. The sterile seed were plated onto ½ MS medium in Phytatrays or similar type boxes, and allowed to grow in the dark (28° C.) for 12 to 20 days. A maize protoplast transient assay was used to obtain and transfect maize protoplasts from leaves of Zea mays c.v. B104. This maize protoplast assay is a modification of the system described by Yoo, S.-D., Cho, Y.-H., and Sheen, J., (2007), Arabidopsis Mesophyll Protoplasts: A Versitile Cell System for Transient Gene Expression Analysis, Nature Protocols, 2: 1565-1572. The solutions were prepared as described by Yoo et. al., (2007), with the exception that the mannitol concentration used for the following experiments was change to 0.6 M.
Transfection of 100 to 500 μl of protoplasts (1-5×10^5 cells) was completed by adding the protoplasts to a 2 ml microfuge tube containing about 40 μg of plasmid DNA, at room temperature. The volume of DNA was preferably kept to about 10% of the protoplast volume. The protoplasts and DNA were occasionally mixed during a 5 minute incubation period. An equal volume of PEG solution was slowly added to the protoplasts and DNA, 2 drops at a time with mixing in between the addition of the drops of PEG solution. The tubes were allowed to incubate for about 10 minutes with occasional gentle mixing. Next, 1 ml of W5+ solution was added and mixed by inverting the tube several times. The tube(s) were centrifuged for 5 minutes at 75× g at a temperature of 4° C. Finally, the supernatant was removed and the pellet was resuspended in 1 ml of WI solution and the protoplasts were placed into a small petri plate (35×10 mm) or into 6-well multiwell plates and incubated overnight in the dark at room temperature. Fluorescence of GFP was viewed by microscopy after 12 hours of incubation. The microscopy conditions similar to those previously described were used for the imaging.

Row | Molecule | translocation of YFP or GFP fluorescent protein into chloroplasts [1] | translocation of YFP or GFP fluorescent protein into chloroplasts ([1]; listed as TraP28-GFP) | TraP processed and cleaved from the YFP or GFP protein [2] | translocation of YFP or GFP fluorescent protein into chloroplasts ([1]; listed as TraP26-GFP) | protection to glyphosate [3] | translocation of YFP or GFP fluorescent protein into chloroplasts ([1]; listed as TraP10-YFP) | translocation of YFP or GFP fluorescent protein into chloroplasts ([1]; listed as TraP17-GFP) | translocation of GFP fluorescent protein into chloroplasts [4] | translocation of GFP fluorescent protein into chloroplasts ([4]; listed as TraP17-GFP)
1 | TraP28: synthetic chloroplast transit peptide, SEQ ID NO:8; tested fused to GFP (pDAB109849) (MAVQSNMICAGVANPFVSPNLSKTRASKSVYSVLGTRLNSSARGKKSAMPLIGNRVPVSA; TraP28) | accumulated within the chloroplasts; also recorded: successfully targeted GFP to tobacco chloroplasts | translocated into the chloroplasts | processed and cleaved from the YFP or GFP protein |  |  |  |  |  | 
2 | TraP26: synthetic chloroplast transit peptide, SEQ ID NO:6; tested fused to GFP (pDAB109847) (MAQVSMIPNAIQAPCSISLSKSQAGKSVRKVSLKPNQHAAWGLRRSGMRVGNPEVVVSAS; TraP26) | accumulated within the chloroplasts; also recorded: successfully targeted GFP to tobacco chloroplasts |  | processed and cleaved from the YFP or GFP protein | translocated into the chloroplasts | provide protection to glyphosate |  |  |  | 
3 | B1 | accumulated within the chloroplasts; also recorded: successfully targeted YFP to tobacco chloroplasts |  | processed and cleaved from the YFP or GFP protein |  |  | translocated into the chloroplasts |  |  | 
4 | B2 | did not translocate YFP fluorescent proteins into the chloroplasts of tobacco |  |  |  |  |  | did not translocate into the chloroplasts | did translocate YFP fluorescent proteins into the chroroplasts of maize; also recorded: accumulated within the chloroplasts; also recorded: successfully targeted GFP to maize chloroplasts | translocated into the chloroplasts
